Tested on: NF-κ B activation
Experiment: Inhibitory activity of NF-κB activation, luciferase reporter assay under TNF-α stimulation in HepG2
Format: cell-based, human
Settings: HepG2, TNF-α 40 ng/ml, 4 hours; for inhibition at 1 µg/mL / inhibition at 10 µg/mL: Homo sapiens, read-out: Inhibitory rate against NF-κB activation (%)
Protocol: Measurement of Inhibitory Activity of NF-κB activation
Using a transfection reagent (Effectene; QIAGEN), the human hepatoma cell strain HepG2 was transfected with a plasmid (pNF κ B-Luc Reporter Plasmid; […]) integrated with an oligonucleotide having five tandem copies of NF-κ B binding sequences([…]) on a upstream region of firefly luciferase gene(Luc) according to the QIAGEN's protocol, and the cells were incubated for 6 to 24 hours. After addition of TNF-α (40 ng/ml) in the presence or absence of a test compound, the cells were incubated for 4 hours, and intracellular luciferase activity was measured by using PicaGene LT (TOYO INK MFG Co., Ltd.) and a chemical luminescence measurement apparatus ([…]luor Plus; TECAN). The inhibitory ratio was measured as a ratio relative to the value of the luciferase activity in the absence of the test compound.

Row | Inhibitory rate against NF-κB activation (%) (Drug concentration at 1 μg/mL) | Inhibitory rate against NF-κB activation (%) (Drug concentration at 10 μg/mL) | Compound | inhibition at 1 µg/mL (Drug concentration at 1 μg/mL) | inhibition at 10 µg/mL (Drug concentration at 10 μg/mL)
1 | 92.9% | 95.5% | CC(=O)Oc1ccccc1C(=O)Nc1cc(Cl)cc(Cl)c1 [compound 121] |  | 
2 |  | 71.8% | O=C(Nc1cc(Cl)cc(Cl)c1)c1ccc(Cl)cc1O [compound 129] |  | 
3 |  | 70.6% | O=C(Nc1cc(Cl)cc(Cl)c1)c1cc([N+](=O)[O-])ccc1O [compound 130] |  | 
4 | 49.1% | 88.7% | Cc1ccc(O)c(C(=O)Nc2cc(Cl)cc(Cl)c2)c1 [compound 131] |  | 
5 | 86.3% | 92.6% | Cc1cc(C)cc(NC(=O)c2cc(Br)ccc2O)c1 [compound 137] |  | 
6 | 82.4% | 97.9% | COc1ccc(-c2ccccc2)cc1NC(=O)c1cc(Cl)ccc1O [compound 141] |  | 
7 | 32.4% | 95.7% | COc1ccc(OC)c(NC(=O)c2cc(Br)ccc2O)c1 [compound 142] |  | 
8 | 37.4% | 87.1% | COc1ccc(C(C)(C)C)cc1NC(=O)c1cc(C)ccc1O [compound 149] |  | 
9 | 35.1% | 95.3% | CCOc1ccc(OCC)c(NC(=O)c2cc(Cl)ccc2O)c1 [compound 152] |  | 
10 | 88.3% | 97.1% | Cc1ccc(C)c(NC(=O)c2cc(Cl)ccc2O)c1 [compound 153] |  | 
11 | 83.0% | 93.3% | N#Cc1ccc(Cl)cc1NC(=O)c1cc(Cl)ccc1O [compound 154] |  | 
12 | 11.2% | 90.2% | CCN(CC)S(=O)(=O)c1ccc(OC)c(NC(=O)c2cc(Cl)ccc2O)c1 [compound 155] |  | 
13 | 93.8% | 95.7% | O=C(Nc1cc([N+](=O)[O-])ccc1Cl)c1cc(Cl)ccc1O [compound 156] |  | 
14 | 52.6% | 98.8% | COc1ccc(C(=O)Nc2ccccc2)cc1NC(=O)c1cc(Cl)ccc1O [compound 157] |  | 
15 | 52.4% | 96.8% | COc1ccc(OC)c(NC(=O)c2cc(Cl)ccc2O)c1 [compound 158] |  | 
16 | 69.6% | 96.5% | COc1ccc(C)c(NC(=O)c2cc(Cl)ccc2O)c1 [compound 160] |  | 

Row | Inhibitory rate against NF-κB activation (%) (Drug concentration at 1 μg/mL) | Inhibitory rate against NF-κB activation (%) (Drug concentration at 10 μg/mL) | Compound | inhibition at 1 µg/mL (Drug concentration at 1 μg/mL) | inhibition at 10 µg/mL (Drug concentration at 10 μg/mL)
17 | 94.2% | 97.6% | CCCCOc1ccc(OCCCC)c(NC(=O)c2cc(Cl)ccc2O)c1 [compound 161] |  | 
18 | 93.8% | 97.9% | CC(C)CCOc1ccc(OCCC(C)C)c(NC(=O)c2cc(Cl)ccc2O)c1 [compound 162] |  | 
19 | 97.6% | 98.3% | CCC(C)(C)c1ccc(Oc2ccccc2)c(NC(=O)c2cc(Cl)ccc2O)c1 [compound 164] |  | 
20 | 94.1% | 96.4% | Cc1ccc(C(=O)C(C)(C)C)cc1NC(=O)c1cc(Cl)ccc1O [compound 166] |  | 
21 | 46.7% | 97.8% | Cc1ccc(S(=O)(=O)c2ccc(Cl)cc2NC(=O)c2cc(Cl)ccc2O)cc1 [compound 168] |  | 
22 | 31.6% | 95.9% | Cc1ccc(S(=O)(=O)c2ccc(Cl)c(NC(=O)c3cc(Cl)ccc3O)c2)cc1 [compound 169] |  | 
23 | 90.6% | 98.1% | COc1ccc(Oc2ccccc2)cc1NC(=O)c1cc(Cl)ccc1O [compound 171] |  | 
24 | 93.7% | 96.4% | Cc1ccc(-c2ccccc2)cc1NC(=O)c1cc(Cl)ccc1O [compound 172] |  | 
25 | 86.4% | 98.3% | COc1ccc(C(C)(C)c2ccccc2)cc1NC(=O)c1cc(Cl)ccc1O [compound 173] |  | 
26 |  | 89.6% | O=C(Nc1cc(N2CCOCC2)ccc1[N+](=O)[O-])c1cc(Cl)ccc1O [compound 174] |  | 
27 | 96.0% | 99.5% | CCCCc1ccc([N+](=O)[O-])cc1NC(=O)c1cc(Cl)ccc1O [compound 176] |  | 
28 | 87.8% | 99.4% | CCC(C)(C)c1ccc(O)c(NC(=O)c2cc(Cl)ccc2O)c1 [compound 177] |  | 
29 |  | 89.7% | COc1ccc(C)cc1NC(=O)c1cc(Cl)ccc1O [compound 178] |  | 
30 | 92.5% | 93.4% | O=C(Nc1cc(F)ccc1F)c1cc(Cl)ccc1O [compound 179] |  | 
31 | 90.7% | 93.7% | O=C(Nc1cc(F)cc(F)c1)c1cc(Cl)ccc1O [compound 180] |  | 

Further lines, the compound ahead of its results:

Row | Compound | Inhibitory rate against NF-κB activation (%) (Drug concentration at 1 μg/mL) | Inhibitory rate against NF-κB activation (%) (Drug concentration at 10 μg/mL) | inhibition at 1 µg/mL (Drug concentration at 1 μg/mL) | inhibition at 10 µg/mL (Drug concentration at 10 μg/mL)
32 | O=C(Nc1cc(C(F)(F)F)ccc1OCC(F)(F)F)c1cc(Cl)ccc1O [compound 113] | 90.5% | 96.2% |  | 
33 | Cc1cc(Oc2ccc(C(F)(F)F)cc2NC(=O)c2cc(Cl)ccc2O)cc(C)c1Cl [compound 115] | 90.7% | 98.4% |  | 
34 | O=C(Nc1cc(C(F)(F)F)ccc1N1CCCCC1)c1cc(Cl)ccc1O [compound 116] | 90.0% | 97.3% |  | 
35 | Cc1ccc(Oc2ccc(C(F)(F)F)cc2NC(=O)c2cc(Cl)ccc2O)cc1 [compound 117] | 92.8% | 92.6% |  | 
36 | O=C(Nc1cc(C(F)(F)F)ccc1Oc1ccc(Cl)cc1)c1cc(Cl)ccc1O [compound 118] | 95.0% | 99.5% |  | 
37 | O=C(Nc1cc(C(F)(F)F)ccc1Cl)c1cc(Cl)cnc1O [compound 119] | 85.4% | 86.9% |  | 
38 | O=C(Nc1cc(F)cc(F)c1)c1cc(Br)ccc1O [compound 123] | 91.8% | 96.8% |  | 
39 | O=C(Nc1cc(Cl)cc(Cl)c1)c1cc(Br)cc(Br)c1O [compound 128] | 91.4% | 95.1% |  | 
40 | O=C(Nc1cc([N+](=O)[O-])cc([N+](=O)[O-])c1)c1cc(Br)ccc1O [compound 133] | 91.0% | 95.6% |  | 
41 | CC(C)(C)c1ccc(C(C)(C)C)c(NC(=O)c2cc(Cl)ccc2O)c1 [compound 134] | 89.1% | 96.3% |  | 
42 | COc1ccc(C(C)(C)C)cc1NC(=O)c1cc(Cl)ccc1O [compound 135, 5-chloro-N-{5-[(1,1-dimethyl)ethyl]-2-methoxyphenyl}-2-hydroxybenzamide] |  |  | 86.2% | 99.2%
43 | COc1ccc(C(C)(C)C)cc1NC(=O)c1cc(Cl)ccc1OC(C)=O [compound 136] | 91.0% | 99.4% |  | 
44 | CC(C)(C)c1cc(NC(=O)c2cc(Cl)ccc2O)cc(C(C)(C)C)c1 [compound 138, N-{3,5-bis[(1,1-dimethyl)ethyl]phenyl}-5-chloro-2-hydroxybenzamide] |  |  | 89.6% | 98.1%
45 | CC(=O)Oc1ccc(Cl)cc1C(=O)Nc1cc(C(C)(C)C)cc(C(C)(C)C)c1 [compound 139] | 90.8% | 94.7% |  | 
46 | CC(C)(C)c1cc(NC(=O)c2cc(Br)ccc2O)cc(C(C)(C)C)c1 [compound 140] | 70.9% | 82.0% |  | 
47 | COc1cc(NC(=O)c2cc(Br)ccc2O)cc(OC)c1 [compound 143] | 38.3% | 96.8% |  | 
48 | COC(=O)c1cc(NC(=O)c2cc(Br)ccc2O)cc(C(=O)OC)c1 [compound 144, 5-bromo-2-hydroxy-N-[3,5-bis(methoxycarbonyl)phenyl]benzamide] |  |  |  | 56.4%
49 | CC(C)(C)c1cc(NC(=O)c2cc([N+](=O)[O-])ccc2O)cc(C(C)(C)C)c1 [compound 146] | 91.2% | 98.5% |  | 
50 | Cc1ccc(O)c(C(=O)Nc2cc(C(C)(C)C)cc(C(C)(C)C)c2)c1 [compound 147] | 38.9% | 91.0% |  | 
51 | Cc1ccc(C(C)C)cc1NC(=O)c1cc(Cl)ccc1O [compound 151] | 85.8% | 98.2% |  | 
52 | CCCCCCOc1ccc(S(C)(=O)=O)cc1NC(=O)c1cc(Cl)ccc1O [compound 165] | 95.9% | 99.4% |  | 
53 | COc1ccc(-n2cccc2)c(NC(=O)c2cc(Cl)ccc2O)c1 [compound 167] | 76.4% | 98.7% |  | 

Reference: patent US20080234233A1, “MEDICAMENT FOR TREATMENT OF NEURODEGENERATIVE DISEASES” (INSTITUTE OF MEDICINAL MOLECULAR DESIGN INC., priority 2002, published 2008)
